Test results taken from patent US20090214529A9, “KINESIN INHIBITORS” (TaiGen Biotechnology Co., Ltd., priority 2007, published 2009).

What follows are compounds tested on tumor cell (assay: Cytotoxicity assay (MTS)). Settings: 72 h; incubation for three days; read-out: IC50, tumor cell growth inhibition (MTS).
Assay type: cell-based
Description: The efficacy of a test compound in inhibiting tumor cell growth was analyzed using a MTS assay. The MTS assay is a calorimetric method for the determination of viable cells in proliferation by using a tetrazolium compound (3-(4,5-dimethylthiazol-2-yl)-5-(3-[…])-2-(4-sulfophenyl)-2H-tetrazolium, inner salt; MTS) and an electron-coupling agent (phenazine methosulfate; PMS). The MTS reagent is converted by dehydrogenase enzymes in metabolically active cells into a formazan that is soluble in a tissue culture medium.
In this assay, tumor cell suspensions (30 μl/well) were seeded into 384-well flat-bottomed tissue culture plates at an appropriate density overnight. A fresh medium (3 μl/well) containing varying concentrations of a test compound or vehicle was added to the culture followed by incubation for three days. At the end of the incubation, all plates were processed simultaneously as follows: The culture medium was aspirated, a MTS cell proliferation assay (Promega) solution (30 μl/well) was added, and the plates were incubated at 37° C. for about 2 hours. Absorbance (a parameter proportional to the cell mass) was measured at 490 nm using a Multiskan (Thermo Electron Corporation, Waltham, Mass.). Inhibition effects were expressed as corrected T/C values for each test compound according to the following equation:
T/C=(T−Blank)/(C−Blank)×100(%),
where T is the mean absorbance of the treated cells, C is the mean absorbance of the controls, and Blank is the mean absorbance of the cell free well.
`CC(C)C(c1nc2c(sc3ccccc32)c(=O)n1Cc1ccc(Br)s1)N(CCCN)C(=O)c1ccc(Cl)cc1` (stereo not shown) [Compound 147] was tested, and the IC50 was < 30 µM.
In the case of `Cc1ccc(C(=O)N(CCCN)C(c2nc3cc4[nH]ccc4cc3c(=O)n2Cc2cccs2)C(C)C)cc1` (stereo not shown) [Compound 2], the IC50 is reported as < 30 µM.
With `Cc1ccc(C(=O)N(CCCN)C(c2nc3c(sc4ccccc43)c(=O)n2Cc2ccc(Br)s2)C(C)C)cc1` (stereo not shown) [Compound 144] the IC50 was < 30 µM.
In the case of `Cc1ccc(C(=O)N(CCN)[C@@H](c2nc3c(oc4ccc(F)cc43)c(=O)n2Cc2ccc(C(F)(F)F)o2)C(C)C)cc1` [Compound 213], the IC50 is reported as < 30 µM.
`CC(C)C(c1nc2n(c(=O)c1Cc1ccccc1)Cc1ccccc1-2)N(CCCN)C(=O)c1ccc(Br)cc1` (stereo not shown) [Compound 155] was tested, and the IC50 was < 30 µM.
In the case of `Cc1ccc(C(=O)N(CCCN)C(c2nc3c(oc4ccc(Cl)cc43)c(=O)n2Cc2ccccc2)C(C)C)cc1` (stereo not shown) [Compound 35], the IC50 is reported as < 30 µM.
`Cc1ccc(C(=O)N(CCCN)C(c2nc3c(oc4ccc(F)cc43)c(=O)n2Cc2ccsc2)C(C)C)cc1` (stereo not shown) [Compound 76] was tested, and the IC50 was < 30 µM.
`Cc1ccc(C(=O)N(CCCN)C(c2nc3c(oc4ccc(F)cc43)c(=O)n2Cc2ccc(Cl)s2)C(C)C)cc1` (stereo not shown) [Compound 71] was tested, and the IC50 was < 30 µM.
In the case of `COC(=O)c1ccc(Cn2c(C(C(C)C)N(CCN)C(=O)c3ccc(C)cc3)nc3c(oc4ccc(F)cc43)c2=O)o1` (stereo not shown) [Compound 102], the IC50 is reported as < 30 µM.
In the case of `CCC(c1nc2nc3cc(Cl)ccc3cc2c(=O)n1Cc1ccccc1)N(CCCN)C(=O)c1ccc(C)cc1` (stereo not shown) [Compound 12], the IC50 is reported as < 30 µM.
In the case of `CC(C)[C@H](c1nc2c(oc3ccc(F)cc32)c(=O)n1Cc1cccs1)N(CCN)C(=O)c1ccc(Br)cc1` [Compound 201], the IC50 is reported as < 30 µM.
`Cc1ccc(C(=O)N(CCCN)C(c2nc3c([nH]c4ccccc43)c(=O)n2Cc2ccccc2)C(C)C)cc1` (stereo not shown) [Compound 158] was tested, and the IC50 was < 30 µM.
For `CCC(c1nc2c(oc3ccccc32)c(=O)n1Cc1ccccc1)N(CCN(C)C)C(=O)c1ccc(Br)cc1` (stereo not shown) [Compound 23], the IC50 was < 30 µM.
`Cc1ccc(C(=O)N(CCN)[C@@H](c2nc3c(oc4ccc(F)cc43)c(=O)n2Cc2cc(Br)co2)C(C)C)cc1` [Compound 217] was tested, and the IC50 was < 30 µM.
`Cc1ccc(C(=O)N(CCN)C(c2nc3c(oc4ccc(Br)cc43)c(=O)n2Cc2ccccc2)C(C)C)cn1` (stereo not shown) [Compound 59] was tested, and the IC50 was < 30 µM.
In the case of `Cc1ccc(C(=O)N(CCN)C(c2nc3c(oc4ccc(Cl)cc43)c(=O)n2Cc2cccc(F)c2)C(C)C)cc1` (stereo not shown) [Compound 96], the IC50 is reported as < 30 µM.
In the case of `Cc1ccc(C(=O)N(CCN)[C@@H](c2nc3c(oc4ccc(F)cc43)c(=O)n2Cc2cccs2)C(C)C)cc1F` [Compound 200], the IC50 is reported as < 30 µM.
For `CCC(c1nc2c(oc3ccccc32)c(=O)n1Cc1ccccc1)N(CCCN(C)C)C(=O)c1ccc(Br)cc1` (stereo not shown) [Compound 20], the IC50 was < 30 µM.
`Cc1ccc(C(=O)N(CCN)C(c2nc3c(oc4ccc(F)cc43)c(=O)n2Cc2cc(Br)co2)C(C)C)cc1` (stereo not shown) [Compound 92] was tested, and the IC50 was < 30 µM.
In the case of `Cc1ccc(C(=O)N(CCCN)C(c2nc3c(sc4ccc(F)cc43)c(=O)n2Cc2ccccc2)C(C)C)cc1` (stereo not shown) [Compound 136], the IC50 is reported as < 30 µM.
In the case of `Cc1ccc(C(=O)N(CCCN)C(c2nc3c(oc4ccc(Cl)cc43)c(=O)n2Cc2ccc(Br)s2)C(C)C)cc1` (stereo not shown) [Compound 41], the IC50 is reported as < 30 µM.
With `CCC(c1nc2nc3ccccc3cc2c(=O)n1Cc1ccccc1)N(CCCN)C(=O)c1ccc(C)cc1` (stereo not shown) [Compound 11] the IC50 was < 30 µM.
`CC(C)C(c1nc2c(oc3ccc(F)cc32)c(=O)n1Cc1ccc(Cl)o1)N(CCN)C(=O)c1ccc(Br)cc1` (stereo not shown) [Compound 170] was tested, and the IC50 was < 30 µM.
With `Cc1ccc(C(=O)N(CCN)C(c2nc3c(oc4ccccc43)c(=O)n2Cc2ccc(Br)s2)C(C)C)cc1` (stereo not shown) [Compound 164] the IC50 was < 30 µM.
In the case of `Cc1ccc(C(=O)N(CCN)[C@@H](c2nc3c(oc4ccc(F)cc43)c(=O)n2Cc2ccc(Cl)s2)C(C)C)cc1` [Compound 182], the IC50 is reported as < 30 µM.
In the case of `CCC(c1nc2c(oc3ccccc32)c(=O)n1Cc1ccccc1)N(CCCN(C)C)C(=O)c1ccc(C)cc1` (stereo not shown) [Compound 19], the IC50 is reported as < 30 µM.
With `Cc1ccc(C(=O)N(CCN)[C@@H](c2nc3c(oc4ccc(F)cc43)c(=O)n2Cc2cc(Br)cs2)C(C)C)cc1` [Compound 215] the IC50 was < 30 µM.
In the case of `Cc1ccc(C(=O)N(CCN)C(c2nc3c(oc4ccc(Br)cc43)c(=O)n2Cc2ccccc2)C(C)C)cc1` (stereo not shown) [Compound 37], the IC50 is reported as < 30 µM.
In the case of `Cc1ccc(C(=O)N(CCN)C(c2nc3c(oc4ccc(F)cc43)c(=O)n2Cc2ccc(C(=O)NCC(F)F)s2)C(C)C)cc1` (stereo not shown) [Compound 120], the IC50 is reported as < 30 µM.
In the case of `Cc1csc(Cn2c(C(C(C)C)N(CCN)C(=O)c3ccc(Br)cc3)nc3c(oc4ccc(F)cc43)c2=O)c1` (stereo not shown) [Compound 167], the IC50 is reported as < 30 µM.
In the case of `CNC(=O)c1ccc(Cn2c(C(C(C)C)N(CCN)C(=O)c3ccc(C)cc3)nc3c(oc4ccc(F)cc43)c2=O)o1` (stereo not shown) [Compound 118], the IC50 is reported as < 30 µM.
In the case of `CC(C)C(c1nc2c(oc3ccc(F)cc32)c(=O)n1Cc1ccc(C#N)s1)N(CCN)C(=O)c1ccc(Br)cc1` (stereo not shown) [Compound 173], the IC50 is reported as < 30 µM.
`Cc1ccc(C(=O)N(CCN)C(c2nc3c(oc4ccc(F)cc43)c(=O)n2Cc2ccc(Cl)o2)C(C)C)cc1` (stereo not shown) [Compound 90] was tested, and the IC50 was < 30 µM.
For `Cc1ccc(C(=O)N(CCN)[C@@H](c2nc3c(oc4ccc(F)cc43)c(=O)n2Cc2ccco2)C(C)C)cc1` [Compound 185], the IC50 was < 30 µM.
`CCC(c1nc2c(oc3ccccc32)c(=O)n1Cc1ccccc1)N(CCCCN)C(=O)c1ccc(C)cc1` (stereo not shown) [Compound 22] was tested, and the IC50 was < 30 µM.
`Cc1ccc(C(=O)N(CCN)C(c2nc3c(oc4ccc(F)cc43)c(=O)n2Cc2ccc(C(=O)N(C)C)s2)C(C)C)cc1` (stereo not shown) [Compound 115] was tested, and the IC50 was < 30 µM.
For `Cc1ccc(C(=O)N(CCN)C(c2nc3c(oc4ccc(F)cc43)c(=O)n2Cc2cccc(Cl)c2)C(C)C)cc1` (stereo not shown) [Compound 122], the IC50 was < 30 µM.
With `CC(C)C(c1nc2c(sc3ccccc32)c(=O)n1Cc1ccc(Cl)s1)N(CCCN)C(=O)c1ccc(Cl)cc1` (stereo not shown) [Compound 143] the IC50 was < 30 µM.
With `Cc1ccc(C(=O)N(CCCN)C(c2nc3c(sc4ccccc43)c(=O)n2Cc2ccc(Cl)s2)C(C)C)cc1` (stereo not shown) [Compound 138] the IC50 was < 30 µM.
With `Cc1ccc(C(=O)N(CCN)[C@@H](c2nc3c(oc4ccc(F)cc43)c(=O)n2Cc2cc(Br)co2)C(C)C)cc1F` [Compound 218] the IC50 was < 30 µM.
In the case of `Cc1ccc(C(=O)N(CCN)[C@@H](c2nc3c(oc4ccc(F)cc43)c(=O)n2Cc2ccoc2)C(C)C)cc1F` [Compound 197], the IC50 is reported as < 30 µM.
For `Cc1ccc(C(=O)N(CCN)[C@@H](c2nc3c(oc4ccc(F)cc43)c(=O)n2Cc2ccc(Cl)o2)C2CC2)cc1` [Compound 224], the IC50 was < 30 µM.
`Cc1ccc(C(=O)N(CCN)C(c2nc3c(oc4ccc(F)cc43)c(=O)n2Cc2ccc(C#N)o2)C(C)C)cc1` (stereo not shown) [Compound 111] was tested, and the IC50 was < 30 µM.
For `Cc1ccc(C(=O)N(CCN)C(c2nc3c(oc4ccc(F)cc43)c(=O)n2Cc2cccc(F)c2)C(C)C)cc1` (stereo not shown) [Compound 79], the IC50 was < 30 µM.
With `Cc1ccc(C(=O)N(CCN)C(c2nc3c(oc4ccc(Cl)cc43)c(=O)n2Cc2ccc(Br)o2)C(C)C)cc1` (stereo not shown) [Compound 103] the IC50 was < 30 µM.
With `C#CCNC(=O)c1ccc(Cn2c(C(C(C)C)N(CCN)C(=O)c3ccc(C)cc3)nc3c(oc4ccc(F)cc43)c2=O)s1` (stereo not shown) [Compound 121] the IC50 was < 30 µM.
With `Cc1ccc(C(=O)N(CCCN)C(c2nc3c(sc4ccc(F)cc43)c(=O)n2Cc2ccccc2)C(C)C)cc1F` (stereo not shown) [Compound 137] the IC50 was < 30 µM.
With `Cc1ccc(C(=O)N(CCCN)C(c2nc3c(sc4ccccc43)c(=O)n2Cc2cccs2)C(C)C)cc1` (stereo not shown) [Compound 148] the IC50 was < 30 µM.
`Cc1ccc(C(=O)N(CCCN)C(c2nc3c(oc4ccc(C)cc43)c(=O)n2Cc2ccccc2)C(C)C)cc1` (stereo not shown) [Compound 40] was tested, and the IC50 was < 30 µM.
In the case of `Cc1ccc(C(=O)N(CCN)[C@@H](c2nc3c(oc4ccc(F)cc43)c(=O)n2Cc2ccccc2)C(C)C)cc1F` [Compound 192], the IC50 is reported as < 30 µM.
In the case of `CC(C)C(c1nc2c(oc3ccc(F)cc32)c(=O)n1Cc1ccc(Cl)o1)N(CCN)C(=O)c1ccc(Cl)cc1` (stereo not shown) [Compound 169], the IC50 is reported as < 30 µM.
`Cc1ccc(C(=O)N(CCN)C(c2nc3c(oc4ccc(Cl)cc43)c(=O)n2Cc2ccc(Cl)s2)C(C)C)cc1` (stereo not shown) [Compound 46] was tested, and the IC50 was < 30 µM.
For `Cc1ccc(C(=O)N(CCCN)C(c2nc3c(sc4ccccc43)c(=O)n2Cc2ccccc2)C(C)C)cc1` (stereo not shown) [Compound 135], the IC50 was < 30 µM.
For `Cc1ccc(C(=O)N(CCCN)C(c2nc3c(Br)c4ccccc4cc3c(=O)n2Cc2ccccc2)C(C)C)cc1` (stereo not shown) [Compound 4], the IC50 was < 30 µM.
`Cc1ccc(C(=O)N(CCN)C(c2nc3c(oc4ccccc43)c(=O)n2Cc2ccc(C#N)s2)C(C)C)cc1` (stereo not shown) [Compound 163] was tested, and the IC50 was < 30 µM.
For `CC(C)C(c1nc2c(oc3ccc(F)cc32)c(=O)n1Cc1ccccc1)N(CCN)C(=O)c1ccc(Br)cc1` (stereo not shown) [Compound 65], the IC50 was < 30 µM.
`Cc1ccc(C(=O)N(CCCN)C(c2nc3c(oc4ccc(F)cc43)c(=O)n2Cc2cc(C)cs2)C(C)C)cc1` (stereo not shown) [Compound 85] was tested, and the IC50 was < 30 µM.
With `Cc1ccc(C(=O)N(CCN)C(c2nc3c(oc4ccc(Cl)cc43)c(=O)n2Cc2cc(C)cs2)C(C)C)cc1` (stereo not shown) [Compound 94] the IC50 was < 30 µM.
With `Cc1ccc(C(=O)N(CCN)[C@@H](c2nc3c(oc4ccc(F)cc43)c(=O)n2Cc2ccco2)C(C)C)cc1F` [Compound 186] the IC50 was < 30 µM.
`Cc1ccc(C(=O)N(CCCN)C(c2nc3c(oc4ccc(C(F)(F)F)cc43)c(=O)n2Cc2ccccc2)C(C)C)cc1` (stereo not shown) [Compound 30] was tested, and the IC50 was < 30 µM.
In the case of `Cc1ccc(C(=O)N(CCN)C(c2nc3c(oc4ccc(F)cc43)c(=O)n2Cc2ccsc2)C(C)C)cc1` (stereo not shown) [Compound 75], the IC50 is reported as < 30 µM.
